Series [1] is described as follows: Chemical stability assessment by RP-UPLC. It is filed as physicochemical. To be noted: 333 μM, 8 mM phosphate buffer pH 7.3, 37° C. vs 5° C. As for the experimental part:
The purpose of this assay was to assess the chemical stability of the glucagon derivatives of the invention in aqueous solutions.
Chemical stability of glucagon derivatives or analogues was investigated by RP-UPLC separation and UV detection. Lyophilized samples were dissolved in a 8 mM Phosphate buffer pH 8.6, followed by adjustment to pH 7.3.using HCl to a final concentration of 333 μM. Samples were incubated for 14 days at 5° C. and 37° C. followed by RP-UPLC analysis. Purity was defined as the area percentage of the main peak in relation to the total area of all integrated peaks in each chromatogram. Purity loss after 14 days at 37° C. was determined as the difference in purity between the samples incubated at 5° C. and 37° C., divided by the purity of the sample after incubation for 14 days at 5° C.
RP-UPLC analysis was performed using a Waters BEH130 2.1 mm×150 mm, 1.7 μm column operated at 50° C. and a flow rate of 0.4 mL/min using a mobile phase system consisting of A: 0.05% TFA in MQ-water B: 0.05% TFA in Acetonitrile. UV-detection was performed at 215 nm. The typical gradient profile used for most of the samples is shown below.
For some individual derivatives or analogues eluting at substantially different retention times compared with the majority of derivatives or analogues, some adjustments to the gradient profile were made to better enable purity assessment comparison across samples. The data confirmed the improved chemical stability of the glucagon derivatives of this invention.

Series [2] can be described thus: Thioflavin T (ThT) fibrillation assay for physical stability. The series is classed as physicochemical. The following applies: 250 μM in 10 mM HEPES buffer, pH 7.5, 37° C., shaking 960 rpm. The procedure, abridged: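 Peptide at 250 μM in 10 mM HEPES pH 7.5 with 1 μM ThT, at 37° C with 960 rpm orbital shaking. Fluorescence (ex 444/em 485 nm) read every 20 min after 10 min pre-incubation; sigmoidal fit gives lag time (t0−2τ) and kapp (1/τ). Recovery is RP-HPLC peptide in the centrifuged, 0.22 μm-filtered supernatant as % of initial.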

Numbered stars: 1 amine (or outer) side, 2 acyl side, 3 side chain; on linkers, the order of the positions; unused ones are H or OH. Bridge positions count the residues as written; N and C are the ends. Square brackets hold non-standard residues; d marks the D form. Side chains are listed from the residue outwards. Peptide text beside a SMILES is read from it. I, II: the chains in the order shown. * marks the point of attachment. C18 diacid = O=C(O)CCCCCCCCCCCCCCCCC(=O)*; γGlu = O=C(O)[C@H](CCC(=O)[*:2])N[*:1]; Ac4c = NC1(C(=O)O)CCC1; AEEA = NCCOCCOCC(=O)O; Aib = CC(C)(N)C(=O)O

Regarding `CC(C)C[C@H](NC(=O)[C@H](CC(C)C)NC(=O)[C@H](Cc1c[nH]c2ccccc12)NC(=O)[C@H](CCC(N)=O)NC(=O)[C@@H](NC(=O)[C@H](Cc1ccccc1)NC(=O)[C@H](CCC(=O)O)NC(=O)[C@H](CCC(N)=O)NC(=O)[C@H](C)NC(=O)[C@H](C)NC(=O)[C@H](CCCCN)NC(=O)[C@H](CO)NC(=O)[C@H](CC(=O)O)NC(=O)[C@H](CC(C)C)NC(=O)[C@H](Cc1ccc(O)cc1)NC(=O)[C@H](CCCCN)NC(=O)[C@H](CO)NC(=O)[C@H](CC(C)C)NC(=O)[C@H](CC(=O)O)NC(=O)[C@H](CO)NC(=O)[C@@H](NC(=O)[C@H](Cc1ccccc1)NC(=O)[C@@H](NC(=O)CNC(=O)[C@H](CCC(N)=O)NC(=O)C(C)(C)NC(=O)[C@@H](N)Cc1c[nH]cn1)[C@@H](C)O)[C@@H](C)O)C(C)C)C(=O)N[C@@H](CC(N)=O)C(=O)N[C@@H](CCCCNC(=O)CC[C@H](NC(=O)CC[C@H](NC(=O)COCCOCCNC(=O)COCCOCCNC(=O)CC[C@H](NC(=O)CCCCCCCCCCCCCCCCC(=O)O)C(=O)O)C(=O)O)C(=O)O)C(N)=O` [Example 8, N^ε29-[(4S)-4-carboxy-4-[[(4S)-4-carboxy-4-[[2-[2-[2-[[2-[2-[2-[[(4S)-4-carboxy-4-(17-carboxyheptadecanoylamino)butanoyl]amino]ethoxy]ethoxy]acetyl]amino]ethoxy]ethoxy]acetyl]amino]butanoyl]amino]butanoyl]-[Aib2,Leu10,Lys17,Ala18,Glu21,Leu27,Lys29]-Glucagon amide] (H-H[Aib]QGTFTSDLSKYLDSKAAQEFVQWLLNK([γGlu-γGlu-AEEA-AEEA-γGlu-C18 diacid])-NH2; N-terminus assumed), the “Purity loss; 14 days at 37° C.” value in series [1] is 9%. The compound further gave a THT assay Lag time (Ex. 76) in series [2] of 45 h.
With `CC(C)C[C@H](NC(=O)[C@H](CC(C)C)NC(=O)[C@H](Cc1c[nH]c2ccccc12)NC(=O)[C@H](CCC(N)=O)NC(=O)[C@@H](NC(=O)[C@H](Cc1ccccc1)NC(=O)[C@H](CCC(=O)O)NC(=O)[C@H](CCCNC(=N)N)NC(=O)[C@H](C)NC(=O)[C@H](CCCNC(=N)N)NC(=O)[C@H](CCCNC(=N)N)NC(=O)[C@H](CO)NC(=O)[C@H](CC(=O)O)NC(=O)[C@H](CC(C)C)NC(=O)[C@H](Cc1ccc(O)cc1)NC(=O)[C@H](CCCCN)NC(=O)[C@H](CO)NC(=O)[C@H](CC(C)C)NC(=O)[C@H](CC(=O)O)NC(=O)[C@H](CO)NC(=O)[C@@H](NC(=O)[C@H](Cc1ccccc1)NC(=O)[C@@H](NC(=O)CNC(=O)[C@H](CCC(N)=O)NC(=O)C(C)(C)NC(=O)[C@@H](N)Cc1c[nH]cn1)[C@@H](C)O)[C@@H](C)O)C(C)C)C(=O)N[C@@H](CC(N)=O)C(=O)N[C@@H](CCCCNC(=O)CC[C@H](NC(=O)CC[C@H](NC(=O)COCCOCCNC(=O)COCCOCCNC(=O)CC[C@H](NC(=O)CCCCCCCCCCCCCCCCC(=O)O)C(=O)O)C(=O)O)C(=O)O)C(N)=O` [Example 12, N^ε29-[(4S)-4-carboxy-4-[[(4S)-4-carboxy-4-[[2-[2-[2-[[2-[2-[2-[[(4S)-4-carboxy-4-(17-carboxyheptadecanoylamino)butanoyl]amino]ethoxy]ethoxy]acetyl]amino]ethoxy]ethoxy]acetyl]amino]butanoyl]amino]butanoyl]-[Aib2,Leu10,Arg20,Glu21,Leu27,Lys29]-Glucagon amide] (H-H[Aib]QGTFTSDLSKYLDSRRAREFVQWLLNK([γGlu-γGlu-AEEA-AEEA-γGlu-C18 diacid])-NH2), the “Purity loss; 14 days at 37° C.” value in series [1] worked out at 8%. The THT assay Lag time (Ex. 76) in series [2] came to 45 h.
Take `CC(C)C[C@H](NC(=O)[C@H](Cc1ccc(O)cc1)NC(=O)[C@H](CCCCN)NC(=O)[C@H](CO)NC(=O)[C@H](CC(C)C)NC(=O)[C@H](CC(=O)O)NC(=O)[C@H](CO)NC(=O)[C@@H](NC(=O)[C@H](Cc1ccccc1)NC(=O)[C@@H](NC(=O)CNC(=O)[C@H](CCC(N)=O)NC(=O)C1(NC(=O)[C@@H](N)Cc2c[nH]cn2)CCC1)[C@@H](C)O)[C@@H](C)O)C(=O)N[C@@H](CCC(=O)O)C(=O)N[C@@H](CCC(=O)O)C(=O)N[C@@H](CCCNC(=N)N)C(=O)N[C@@H](CCCNC(=N)N)C(=O)N[C@@H](C)C(=O)N[C@@H](CCCNC(=N)N)C(=O)N[C@@H](CC(=O)O)C(=O)N[C@@H](Cc1ccccc1)C(=O)N[C@H](C(=O)N[C@@H](CCC(N)=O)C(=O)N[C@@H](Cc1c[nH]c2ccccc12)C(=O)N[C@@H](CC(C)C)C(=O)N[C@@H](CC(C)C)C(=O)N[C@@H](CCCCNC(=O)CNC(=O)[C@H](CO)NC(=O)[C@H](CCC(=O)O)NC(=O)CNC(=O)[C@H](CO)NC(=O)CC[C@H](NC(=O)CC[C@H](NC(=O)CCCCCCCCCCCCCCCCC(=O)O)C(=O)O)C(=O)O)C(=O)N[C@H](C(N)=O)[C@@H](C)O)C(C)C` [Example 16, N^ε28-[2-[[(2S)-2-[[(2S)-4-carboxy-2-[[2-[[(2S)-2-[[(4S)-4-carboxy-4-[[(4S)-4-carboxy-4-(17-carboxyheptadecanoylamino)butanoyl]amino]butanoyl]amino]-3-hydroxypropanoyl]amino]acetyl]amino]butanoyl]amino]-3-hydroxypropanoyl]amino]acetyl]-[Acb2,Leu10,Glu15,Glu16,Arg20,Leu27,Lys28]-Glucagon amide] (I: H-H[Ac4c]QGTFTSDLSKYLEERRARDFVQWLLKT-NH2 / II: {C18 diacid-γGlu-γGlu}-SGESG; amide I:28-II:C; N-terminus assumed): in series [1], the “Purity loss; 14 days at 37° C.” value is recorded as 3%. Besides, the THT assay Lag time (Ex. 76) in series [2] was determined as 45 h.
With `CC(C)C[C@H](NC(=O)[C@H](Cc1ccc(O)cc1)NC(=O)[C@H](CCCNC(=N)N)NC(=O)[C@H](CO)NC(=O)[C@H](CC(C)C)NC(=O)[C@H](CC(=O)O)NC(=O)[C@H](CO)NC(=O)[C@@H](NC(=O)[C@H](Cc1ccccc1)NC(=O)[C@@H](NC(=O)CNC(=O)[C@H](CCC(N)=O)NC(=O)C1(NC(=O)[C@@H](N)Cc2c[nH]cn2)CCC1)[C@@H](C)O)[C@@H](C)O)C(=O)N[C@@H](CCC(=O)O)C(=O)N[C@@H](CO)C(=O)N[C@@H](CCCNC(=N)N)C(=O)N[C@@H](CCCNC(=N)N)C(=O)N[C@@H](C)C(=O)N[C@@H](CCCNC(=N)N)C(=O)N[C@@H](CCC(=O)O)C(=O)N[C@@H](Cc1ccccc1)C(=O)N[C@H](C(=O)N[C@@H](CCC(N)=O)C(=O)N[C@@H](Cc1c[nH]c2ccccc12)C(=O)N[C@@H](CC(C)C)C(=O)N[C@@H](CC(C)C)C(=O)N[C@@H](CCCCNC(=O)CC[C@H](NC(=O)CC[C@H](NC(=O)COCCOCCNC(=O)COCCOCCNC(=O)CC[C@H](NC(=O)CC[C@H](NC(=O)CCCCCCCCCCCCCCCCC(=O)O)C(=O)O)C(=O)O)C(=O)O)C(=O)O)C(=O)N[C@H](C(N)=O)[C@@H](C)O)C(C)C` [Example 59, N^ε28-[(4S)-4-carboxy-4-[[(4S)-4-carboxy-4-[[2-[2-[2-[[2-[2-[2-[[(4S)-4-carboxy-4-[[(4S)-4-carboxy-4-(17-carboxyheptadecanoylamino)butanoyl]amino]butanoyl]amino]ethoxy]ethoxy]acetyl]amino]ethoxy]ethoxy]acetyl]amino]butanoyl]amino]butanoyl]-[Acb2,Leu10,Arg12,Glu15,Arg20,Glu21,Leu27,Lys28]-Glucagon amide] (H-H[Ac4c]QGTFTSDLSRYLESRRAREFVQWLLK([γGlu-γGlu-AEEA-AEEA-γGlu-γGlu-C18 diacid])T-NH2; N-terminus assumed), the THT assay Lag time (Ex. 76) in series [2] came out at 12 h.
In series [2], `CC(C)C[C@H](NC(=O)[C@H](Cc1ccc(O)cc1)NC(=O)[C@H](CCCCN)NC(=O)[C@H](CO)NC(=O)[C@H](CC(C)C)NC(=O)[C@H](CC(=O)O)NC(=O)[C@H](CO)NC(=O)[C@@H](NC(=O)[C@H](Cc1ccccc1)NC(=O)[C@@H](NC(=O)CNC(=O)[C@H](CCC(N)=O)NC(=O)C1(NC(=O)[C@@H](N)Cc2c[nH]cn2)CCC1)[C@@H](C)O)[C@@H](C)O)C(=O)N[C@@H](CCC(=O)O)C(=O)N[C@@H](CO)C(=O)N[C@@H](CCCNC(=N)N)C(=O)N[C@@H](CCCNC(=N)N)C(=O)N[C@@H](C)C(=O)N[C@@H](CCCNC(=N)N)C(=O)N[C@@H](CCC(=O)O)C(=O)N[C@@H](Cc1ccccc1)C(=O)N[C@H](C(=O)N[C@@H](CCC(N)=O)C(=O)N[C@@H](Cc1c[nH]c2ccccc12)C(=O)N[C@@H](CC(C)C)C(=O)N[C@@H](CC(C)C)C(=O)N[C@@H](CCCCNC(=O)CC[C@H](NC(=O)CC[C@H](NC(=O)COCCOCCNC(=O)COCCOCCNC(=O)CC[C@H](NC(=O)CC[C@H](NC(=O)CCCCCCCCCCCCCCCCC(=O)O)C(=O)O)C(=O)O)C(=O)O)C(=O)O)C(=O)N[C@H](C(N)=O)[C@@H](C)O)C(C)C` [Example 61, N^ε28-[(4S)-4-carboxy-4-[[(4S)-4-carboxy-4-[[2-[2-[2-[[2-[2-[2-[[(4S)-4-carboxy-4-[[(4S)-4-carboxy-4-(17-carboxyheptadecanoylamino)butanoyl]amino]butanoyl]amino]ethoxy]ethoxy]acetyl]amino]ethoxy]ethoxy]acetyl]amino]butanoyl]amino]butanoyl]-[Acb2,Leu10,Glu15,Arg20,Glu21,Leu27,Lys28]-Glucagon amide] (H-H[Ac4c]QGTFTSDLSKYLESRRAREFVQWLLK([γGlu-γGlu-AEEA-AEEA-γGlu-γGlu-C18 diacid])T-NH2; N-terminus assumed) came in with a THT assay Lag time (Ex. 76) of 20 h.

The values are drawn from patent US9474790B2, “Stable, protracted GLP-1/glucagon receptor co-agonists for medical use” (Novo Nordisk A/S, priority 2013, dated 2016).
